In ChEMBL document CHEMBL2434927, “Indenoindoles and cyclopentacarbazoles as bioactive compounds: synthesis and biological applications” (Eur J Med Chem, 2013):

How the values were obtained:
[1] = biological target: T1, NUAK family SNF1-like kinase 1 (Homo sapiens, UniProt O60285); assay: Inhibition of human ARK5
T1 sequence (O60285 whole entry): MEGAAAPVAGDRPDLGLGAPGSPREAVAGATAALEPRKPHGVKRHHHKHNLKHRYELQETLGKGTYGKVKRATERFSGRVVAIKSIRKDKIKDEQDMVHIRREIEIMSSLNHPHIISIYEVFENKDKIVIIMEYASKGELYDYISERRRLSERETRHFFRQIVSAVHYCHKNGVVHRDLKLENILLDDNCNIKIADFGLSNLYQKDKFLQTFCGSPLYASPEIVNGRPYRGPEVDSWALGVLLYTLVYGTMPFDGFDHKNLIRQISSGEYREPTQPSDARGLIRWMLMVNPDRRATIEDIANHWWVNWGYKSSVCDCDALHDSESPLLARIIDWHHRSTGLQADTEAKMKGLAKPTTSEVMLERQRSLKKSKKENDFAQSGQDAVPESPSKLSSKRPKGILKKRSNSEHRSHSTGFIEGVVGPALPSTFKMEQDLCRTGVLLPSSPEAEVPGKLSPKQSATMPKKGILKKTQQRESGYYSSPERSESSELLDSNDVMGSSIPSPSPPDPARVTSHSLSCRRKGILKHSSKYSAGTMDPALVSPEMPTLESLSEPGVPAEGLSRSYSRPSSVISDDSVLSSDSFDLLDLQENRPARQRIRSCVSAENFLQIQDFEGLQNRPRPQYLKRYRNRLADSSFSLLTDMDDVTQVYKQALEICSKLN

A-427 = assay: Cytotoxicity against human A427 cells assessed as growth inhibition; format: functional
[2] = Cytotoxicity against human KYSE-70 cells assessed as growth inhibition; format: functional
[3] = Cytotoxicity against human LCLC cells assessed as growth inhibition; format: functional
SISO = assay: Cytotoxicity against human SISO cells assessed as growth inhibition; format: functional
5637 = assay: Cytotoxicity against human 5637 cells assessed as growth inhibition; format: functional
MCF7 = assay: Cytotoxicity against human MCF7 cells assessed as growth inhibition; format: functional
[4] = biological target: T2, Receptor-type tyrosine-protein kinase FLT3 (Homo sapiens, UniProt P36888); assay: Inhibition of human FLT3
T2 sequence (P36888 whole entry): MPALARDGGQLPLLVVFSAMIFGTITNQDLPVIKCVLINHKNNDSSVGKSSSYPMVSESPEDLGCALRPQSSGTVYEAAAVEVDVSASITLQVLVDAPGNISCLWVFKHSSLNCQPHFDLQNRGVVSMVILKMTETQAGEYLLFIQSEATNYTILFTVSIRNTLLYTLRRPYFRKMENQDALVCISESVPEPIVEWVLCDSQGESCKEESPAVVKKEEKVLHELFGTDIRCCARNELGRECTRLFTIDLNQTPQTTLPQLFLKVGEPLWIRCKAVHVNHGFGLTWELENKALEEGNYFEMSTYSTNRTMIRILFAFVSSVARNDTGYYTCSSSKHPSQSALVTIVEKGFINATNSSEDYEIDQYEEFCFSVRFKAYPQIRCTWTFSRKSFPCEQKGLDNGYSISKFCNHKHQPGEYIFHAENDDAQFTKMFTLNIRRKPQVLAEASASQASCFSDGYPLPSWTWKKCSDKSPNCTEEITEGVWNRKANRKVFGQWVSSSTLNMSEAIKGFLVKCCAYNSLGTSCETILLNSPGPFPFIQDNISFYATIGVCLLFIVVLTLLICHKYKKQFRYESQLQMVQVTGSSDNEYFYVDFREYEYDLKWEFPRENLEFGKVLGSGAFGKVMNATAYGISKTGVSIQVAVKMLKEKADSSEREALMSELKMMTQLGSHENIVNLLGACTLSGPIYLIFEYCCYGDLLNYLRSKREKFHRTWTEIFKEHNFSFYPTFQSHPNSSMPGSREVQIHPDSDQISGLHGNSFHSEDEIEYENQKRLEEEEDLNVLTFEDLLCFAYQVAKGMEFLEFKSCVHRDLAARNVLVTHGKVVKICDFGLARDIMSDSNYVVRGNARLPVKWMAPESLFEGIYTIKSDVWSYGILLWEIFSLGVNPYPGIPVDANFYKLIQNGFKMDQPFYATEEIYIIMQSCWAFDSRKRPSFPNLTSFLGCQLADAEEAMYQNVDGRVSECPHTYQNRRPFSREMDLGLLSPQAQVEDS

MC-38 = assay: Antitumor activity against mouse C38 cells allografted in B6D2F1 mouse assessed as tumor regression at 25 mg/kg, iv administered on days 10, 17 and 24 measured for 10 weeks relative to control; format: functional
Casein kinase II = Casein kinase II (Homo sapiens, UniProt P19784+P67870+P68400); assay: Inhibition of human CK2; format: protein-complex assay
Sequence of Casein kinase II (P67870 whole entry): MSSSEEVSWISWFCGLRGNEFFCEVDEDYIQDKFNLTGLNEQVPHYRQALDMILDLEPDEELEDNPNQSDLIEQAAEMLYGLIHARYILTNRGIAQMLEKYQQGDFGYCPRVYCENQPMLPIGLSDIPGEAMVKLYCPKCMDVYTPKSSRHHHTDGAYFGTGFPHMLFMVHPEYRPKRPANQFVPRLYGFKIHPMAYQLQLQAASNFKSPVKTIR
Sequence of Casein kinase II (P68400 whole entry): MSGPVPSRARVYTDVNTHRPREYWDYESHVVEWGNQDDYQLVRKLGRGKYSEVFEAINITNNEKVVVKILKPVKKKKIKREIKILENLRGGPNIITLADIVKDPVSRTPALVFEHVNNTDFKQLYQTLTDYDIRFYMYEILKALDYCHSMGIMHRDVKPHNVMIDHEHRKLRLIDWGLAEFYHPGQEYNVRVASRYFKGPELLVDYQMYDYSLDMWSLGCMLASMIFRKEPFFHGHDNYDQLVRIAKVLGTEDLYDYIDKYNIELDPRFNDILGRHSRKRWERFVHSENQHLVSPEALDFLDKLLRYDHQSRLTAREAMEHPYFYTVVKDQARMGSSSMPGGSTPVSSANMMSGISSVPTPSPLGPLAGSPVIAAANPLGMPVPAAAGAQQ
Sequence of Casein kinase II (P19784 whole entry): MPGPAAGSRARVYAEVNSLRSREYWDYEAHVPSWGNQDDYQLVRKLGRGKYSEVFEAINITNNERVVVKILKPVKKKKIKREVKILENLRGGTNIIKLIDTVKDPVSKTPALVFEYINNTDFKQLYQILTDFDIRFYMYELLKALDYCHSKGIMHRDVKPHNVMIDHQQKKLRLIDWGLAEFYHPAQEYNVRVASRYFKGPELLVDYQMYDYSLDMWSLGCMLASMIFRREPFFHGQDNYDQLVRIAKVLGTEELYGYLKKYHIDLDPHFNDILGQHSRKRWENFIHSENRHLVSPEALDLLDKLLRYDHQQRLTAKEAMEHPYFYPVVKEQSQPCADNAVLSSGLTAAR

For `CC(C)n1c2c(c3c1-c1ccccc1C3=O)C(=O)CCC2=O`, the IC50 [1] was 570 nM, the GI (A-427) was 1.3 µM and the GI [2] was 1.3 µM. The GI [3] was 1.3 µM, the GI (SISO) was 1.3 µM and the GI 5637 was 1.3 µM. The GI (MCF7) was 1.3 µM and the IC50 [4] was 180 nM.

Work on `C#C[C@H](C)O/N=C1/c2cc(OC)c(OC)cc2-c2[nH]c3ccc(OCCN(C)C)cc3c21` yielded an Activity (MC-38) of 100%.

`O=c1ccc(=O)c2c1c1c(=O)c3ccccc3c1n2Cc1ccccc1` showed an IC50 (Casein kinase II) of 1490 nM.
